Measured values: publication PMC2001825, “Pharmacokinetics of ethylenediaminemalonatoplatinum(II) (JM-40) during phase I trial” (British Journal of Cancer, 1987)
“And” between values parts separate entries of the source, which are not always exact repeats. Identical values can stand only once.

Key:
[1] = human, in vivo
Source text: Br. J. Cancer (1987), 56, 479-483 ? The Macmillan Press Ltd., 1987 Pharmacokinetics of ethylenediaminemalonatoplatinum(II) (JM-40) during phase I trial F. Elferink1, W.J.F. van der Vijgh1, W.W. ten Bokkel Huinink2, J.B. Vermorken', I. Klein1, B. Winograd', M.K.T. Knobf', G. Simonetti2, H.E. Gall', J.G. McVie2 & H.M. Pinedo' 1Department of Oncology, Free University Hospital, De Boelelaan 1117, 1081 HV Amsterdam; and 2Netherlands Cancer Institute, Antoni van Leeuwenhoek Hospital, Plesmanlaan 121, 1066 CX Amsterdam, The Netherlands. […] The drug was administered intravenously by short-term (10-60min) infusion. Doses ranged from 20 to 1,200 mgm-2. JM-40 was determined in plasma ultrafiltrate and urine by HPLC. Platinum (Pt) concentrations were determined in plasma, plasma ultrafiltrate, urine and red blood cells by atomic absorption spectrometry up to 5 days after administration of the drug. Ultrafilterable Pt could be determined up to 45 days after the infusion in one patient sampled over such a long period. […] During the first 6h 27+9% of the administered dose was excreted as JM-40. Cumulative platinum excretion in the urine amounted to 29+ 13%, 42+ 14% and 60+13% over the first 6h, 24h and 5 days, respectively. The uptake of platinum in red blood cells was limited, comprising only 0.24+0.12% of the administered dose. […] In particular the low emetogenic potential as determined in the ferret (Schurig et al., 1984) and the limited nephrotoxicity observed in dogs (Lelieveld et al., 1984) were reasons to conduct a phase I trial. […] Investigation of the pharmacokinetics during phase I clinical trials is important because it may help to design an optimal therapeutic regimen in phase II trials (Kovach, 1983). In the case of an analogue, pharmacokinetics can be compared with that of the parent compound. Furthermore, when preclinical information on animal pharmacokinetics is available human pharmacokinetics at low doses of the phase I trial may aid in escalating the dose as quickly and safely as possible (Collins et al., 1986, Van Hennik et al. 1987). Thus, clinical pharmacokinetics of JM-40 and platinum were investigated in plasma, plasma ultrafiltrate, urine and red blood cells. Figure 1 Structural platinum(II) (JM-40). formula of ethylenediaminemalonato- Patients and methods Patients and materials Pharmacokinetic studies were performed in 19 patients who received 28 cycles of JM-40 within a dose range of 20- 1,200mgm-2. The median age of the patients (6 females, 13 males) was 57 yrs (range 37-74 yrs). […] Renal function was decreased (creatinine clearance <60mlmin-1) at the start of only 3 treatment cycles. […] JM-40 was supplied by Johnson Matthey, Reading, Berkshire, UK. […]

[2] = cited from earlier work
[3] = test system: plasma proteins; design: method as in Van der Vijgh et al., 1986; details: ref Van der Vijgh et al., 1986; cited from earlier work
[4] = design: method as in Lelieveld et al., 1984; details: dogs, preclinical; ref Lelieveld et al., 1984; cited from earlier work
[5] = design: method as in Schurig et al., 1984; details: ferret, preclinical; ref Schurig et al., 1984; cited from earlier work
[6] = after cis-platin, ref Vermorken et al., cited from earlier work

ethylenediaminemalonatoplatinum(II) [JM-40]
cumulative urinary excretion after 24 h, as Pt [1]: 42+14%
dose m-2 vs AUC relation [1]: linear pharmacokinetics
half-life of Pt in RBCs over day 1-5 [1]: 14 + 3 days
time of maximum Pt levels in RBCs after start of infusion [1]: 2 to 8 h
maximum tolerable dose ([2]; in vivo): 1,200 mg m-2
in vitro rate constant of plasma protein binding (k in vitro of free Pt) [3]: 0.002 min⁻¹ and 0.0020 min⁻¹
nephrotoxicity [4]: limited
emetogenic potential [5]: low

N.N.[Cl][Pt][Cl] [cis-platin, cis-diammine-dichloroplatinum(II)]
CUE 0-6h of free Pt ([6]; 1984b): 24+5 %D
CUE 0-24h of free Pt [6]; 1986: 28+4 %D

N.N.O=C([O-])C1(C(=O)[O-])CCC1.[Pt+2] [carboplatin, diammine( 1, l-cyclobutanedicarboxylato)platinum(II), reference compound]
dose limiting toxicity ([2]; ref Joss et al., 1984): myelotoxicity
